{
  "source": "patent US4237135A",
  "about": "“2-(4-Ethyl-1-piperazinyl)-4-phenylquinoline, process for preparation thereof, and composition thereof” (Dainippon Pharmaceutical Co., Ltd., priority 1978, dated 1980)",
  "key": {"[1]": {"tested_on": "mouse-killing behavior of olfactory bulb-ablated rats", "test": "Suppressing effect on mouse-killing behavior in olfactory bulb-ablated rats", "type": "in vivo, male Wistar strain rats", "description": "(§1) Pharmacological experiments have been done on the compound of the present invention, some known and novel analogous compounds and an antidepressant on the market, as mentioned below. In the experiments, ED50 was calculated by Litchfield-Wilcoxon method.\nMale Wistar strain rats, weighing 240-260 g, which had developed mouse-killing behavior after ablation of the olfactory bulb according to the method of Z. P. Horovitz [Int. J. Neuropharmacol. 5, 405 (1966)], were used in groups of 15 animals each. Each test compound was given intraperitoneally to the rats in 6 different doses, and 1 hours later the rats were each tested as to whether they killed a mouse or not. ED50 was calculated for each compound."}, "[2]": {"tested_on": "catalepsy induced by reserpine", "test": "Anti-reserpine activity: antagonistic effect on catalepsy induced by reserpine", "type": "in vivo, male STD-ddY strain mice", "conditions": "p.o.; for ED50: Mus musculus, po, 1 h, reserpine 5 mg/kg i.p.", "description": "In the experiments, ED50 was calculated by Litchfield-Wilcoxon method. Male STD-ddY strain mice, weighing […], were used in groups of 10 mice each. […] The mice were tested for catalepsy 1 hour after the administration of test compounds. ED50 was calculated for each compound."}, "[3]": {"tested_on": "hypothermia induced by reserpine", "test": "Anti-reserpine activity: antagonistic effect on hypothermia induced by reserpine", "type": "in vivo, male STD-ddY strain mice", "conditions": "p.o.; for ED50: Mus musculus, po, 4 h, reserpine 5 mg/kg i.p.", "description": "Pharmacological experiments have been done on the compound of the present invention, some known and novel analogous compounds and an antidepressant on the market, as mentioned below. In the experiments, ED50 was calculated by Litchfield-Wilcoxon method. This effect was examined according to the method of […]. 2, 725 (1963)], using male STD-ddY strain mice weighing 20-25 g. […] Rectal temperature of each mouse was measured 4 hours later with a thermister (Shibaura Electric, BMG III-130)."}, "[4]": {"tested_on": "methamphetamine-induced locomotor activity", "test": "Anti-methamphetamine effect (inhibitory effect on methamphetamine-induced locomotor activity)", "type": "in vivo, male STD-ddY strain mice", "description": "as §1\nMale STD-ddY strain mice, weighing 20-25 g, were used in groups of 10 mice each. Groups of mice were injected intraperitoneally with 4 mg/kg of methamphetamine, and 30 minutes later each test compound was injected intraperitoneally in 3 different doses. One hour after the injection of methamphetamine, locomotor activity of each mouse was measured for 10 minutes with an Animex locomotor activity meter."}, "antidepressant activity": {"tested_on": "antidepressant activity", "test": "Antidepressant activity, overall (Test 1)", "type": "in vivo, male STD-ddY strain mice; male Wistar strain rats", "description": "This effect was examined according to the method of […]. 2, 725 (1963)], using male STD-ddY strain mice weighing 20-25 g. […] Rectal temperature of each mouse was measured 4 hours later with a thermister (Shibaura Electric, BMG III-130). […] Male STD-ddY strain mice, weighing […], were used in groups of 10 mice each. […] The mice were tested for catalepsy 1 hour after the administration of test compounds. ED50 was calculated for each compound. […] Male STD-ddY strain mice, weighing 20-25 g, were used in groups of 10 mice each. […] Two hours after the tetrabenazine injection, the degree of eyelid closure (ptosis) was assessed on the basis of macroscopic scoring (0: no closure of the eyelid, 1: 1/4 closure, 2: 2/4 closure, 3: 3/4 closure and 4: complete closure), essentially according to the method of P. A. J. Janssen [Arzneim. Forsch. 15, 104 (1965)]. ED50 was calcuated for each compound. […] Male Wistar strain rats, weighing 240-260 g, which had developed mouse-killing behavior after ablation of the olfactory bulb according to the method of Z. P. Horovitz [Int. J. Neuropharmacol. 5, 405 (1966)], were used in groups of 15 animals each. […] ED50 was calculated for each compound."}, "[5]": {"tested_on": "brain 5-hydroxyindoleacetic acid (5-HIAA)", "test": "Effect on brain monoamine metabolites: 5-HIAA", "type": "in vivo, male Wistar strain rats", "conditions": "100 mg/kg p.o.; for Brain 5-HIAA, % of control: *P<0.01", "description": "(§2) Each test compound was given orally to the rats in a dose of 100 mg/kg and, 1, 3 and 6 hours later the rats were sacrificed. […] The concentrations of the monoamine metabolites were calculated in terms of ng/g wet brain tissue and expressed as % of the concentrations of controls receiving saline."}, "[6]": {"tested_on": "spontaneous and methamphetamine-induced locomotor activities", "test": "Neuroleptics-like activity, overall (Test 2)", "type": "in vivo, male STD-ddY strain mice", "conditions": "overall conclusion"}, "tremorine-induced tremor": {"tested_on": "tremorine-induced tremor", "test": "Anti-tremorine activity (antagonistic effect on tremorine-induced tremor)", "type": "in vivo, male STD-ddY strain mice", "description": "as §1\nMale STD-ddY strain mice, weighing 20-25 g, were used in groups of 5 mice each. Each test compound was given orally to the mice in 5 different doses, and 2 hours later 20 mg/kg of tremorine was injected intraperitoneally. Half an hour after the injection of tremorine, each mouse was examined macroscopically for tremor severity, according to the rating scale with the scores 0, 1, 2, and 3 depending on the severity. ED50 was calculated for each compound. The ED50 means the dose of test compound in which the tremorine-induced tremor was inhibited by 50% in severity."}, "[7]": {"tested_on": "brain homovanillic acid (HVA)", "test": "Effect on brain monoamine metabolites: HVA", "type": "in vivo, male Wistar strain rats", "conditions": "100 mg/kg p.o.; for Brain HVA, % of control: *P<0.01", "description": "as §2"}, "[8]": {"tested_on": "spontaneous locomotor activity", "test": "Inhibitory effect on spontaneous locomotor activity", "type": "in vivo, male STD-ddY strain mice", "description": "as §1\nMale mice of STD-ddY strain, weighing 20-25 g, were used in groups of 5 mice each. Each test compound was given orally to the mice in 5 different doses, and 2 hours later the spontaneous locomotor activity of each mouse was measured for 3 minutes by means of an Animex locomotor activity meter (made by Farad Electronics). ED50 was calculated for each compound. The ED50 means the dose of test compound in which the locomotor activity was reduced to 50% of that of control group receiving saline."}},
  "note": "Like-named read-outs stand apart in the source and are kept apart here.",
  "data": [
    {"smiles": "CCN1CCN(c2cc(-c3ccccc3)c3ccccc3n2)CC1.Cl.Cl", "note": "[A, 2-(4-Ethyl-1-piperazinyl)-4-phenylquinoline dihydrochloride]", "values": [
      {"measurement": "ED50", "setting": "[1]; Rattus norvegicus, ip, 1 hour after dosing, read-out: Suppressing effect on mouse-killing behavior of olfactory bulb-ablated rats, ED50", "value": 5, "unit": "mg/kg"},
      {"measurement": "Suppression of mouse-killing behavior (in words)", "setting": "[1]; versus imipramine, i.p.", "value": "as potent as imipramine"},
      {"measurement": "ED50", "setting": "[2]; Table 1, read-out: Anti-reserpine activity ED50, catalepsy", "value": 1.5, "unit": "mg/kg"},
      {"measurement": "ED50", "setting": "[2]; Table 2, read-out: Anti-reserpine ED50, catalepsy", "value": 1.5, "unit": "mg/kg"},
      {"measurement": "Potency in antagonizing reserpine catalepsy relative to imipramine", "setting": "[2]; versus imipramine", "value": 25.5, "unit": "times more powerful"},
      {"measurement": "ED50", "setting": "[3]; Table 1, read-out: Anti-reserpine activity ED50, hypothermia", "value": 5.8, "unit": "mg/kg"},
      {"measurement": "ED50", "setting": "[3]; Table 2, read-out: Anti-reserpine ED50, hypothermia", "value": 5.8, "unit": "mg/kg"},
      {"measurement": "Potency in antagonizing reserpine hypothermia relative to imipramine", "setting": "[3]; versus imipramine", "value": 3.7, "unit": "times more powerful"},
      {"measurement": "ED50", "setting": "[4]; Mus musculus, ip, methamphetamine 4 mg/kg i.p., read-out: Anti-methamphetamine ED50", "value": 8, "unit": "mg/kg"},
      {"measurement": "Activity relative to chlorpromazine, methamphetamine-induced locomotor activity", "setting": "[4]; fraction of chlorpromazine activity, i.p.", "value": "about 1/8"},
      {"measurement": "Anti-reserpine activity (in words)", "setting": "antidepressant activity; hypothermia and catalepsy, p.o.", "value": "more potent anti-reserpine activity than imipramine"},
      {"measurement": "Antidepressant activity (in words)", "setting": "antidepressant activity; overall conclusion", "value": "more potent than its analogues, compounds 1 and 2 and also than imipramine"},
      {"measurement": "Anti-reserpine and anti-tetrabenazine potency relative to compounds 4 and 5", "setting": "antidepressant activity; versus compounds 4 and 5, Table 2, p.o.", "value": "2-17 times more potent"},
      {"measurement": "Brain 5-HIAA concentration / serotonin turnover (in words)", "setting": "[5]", "value": "does not affect brain 5-HIAA concentration"},
      {"measurement": "Brain 5-HIAA, % of control", "setting": "[5]; 1 hour", "value": "118 % of control"},
      {"measurement": "Brain 5-HIAA, % of control", "setting": "[5]; 3 hours", "value": "110 % of control"},
      {"measurement": "Brain 5-HIAA, % of control", "setting": "[5]; 6 hours", "value": "116 % of control"},
      {"measurement": "Neuroleptics-like activity (in words)", "setting": "[6]", "value": "shows some neuroleptics-like effects"},
      {"measurement": "ED50", "setting": "tremorine-induced tremor; Mus musculus, po, tremorine 20 mg/kg i.p., read-out: Anti-tremorine activity ED50", "value": 9.7, "unit": "mg/kg"},
      {"measurement": "Anti-tremorine activity (in words)", "setting": "tremorine-induced tremor; p.o.", "value": "more potent than imipramine and almost comparable to biperiden"},
      {"measurement": "Brain HVA concentration / dopamine turnover (in words)", "setting": "[7]", "value": "marked increase in brain HVA concentration"},
      {"measurement": "Brain HVA, % of control", "setting": "[7]; 1 hour", "value": "193 % of control"},
      {"measurement": "Brain HVA, % of control", "setting": "[7]; 3 hours", "value": "186 % of control"},
      {"measurement": "Brain HVA, % of control", "setting": "[7]; 6 hours", "value": "186 % of control"},
      {"measurement": "ED50", "setting": "[8]; Mus musculus, po, 2 hours after dosing, read-out: Spontan. locomotor ED50", "value": 58.7, "unit": "mg/kg"},
      {"measurement": "Activity relative to chlorpromazine, spontaneous locomotor activity", "setting": "[8]; fraction of chlorpromazine activity, p.o.", "value": "about 1/8"}
    ]}
  ]
}
